Converted amounts (≈) assume the structure as drawn. Read-outs that look alike come from different tables or passages of the source.

The target in one experiment is α-glucosidase. Details: method as in earlier work. To be noted: known active flavonoids from B. strychnifolia stem; cited from earlier work.
Experiment [1] has as its system LPS-induced raw 264.7 cells. The experiment in a line: Nitric oxide production in LPS-induced raw 264.7 cells (Griess assay). The class given is cell-based, murine. To be noted: 200 ng/mL LPS, 24 h, Figure 5. The procedure:
The investigation of the inhibitory activities against LPS induced nitric oxide (NO) production of crude extract, partitioned fractions, and isolated compounds by Griess assay, which was accomplished as described by Kaewdana et al.. Briefly, Raw264.7 cells were seeded, at the density of 1 × 10^5 cells/well, in 96-well plates. After 1–2 h culture, the medium was changed and co-treated with different concentrations of samples and 200 ng/mL LPS for 24 h. After that, the nitrite-containing medium was equally mixed with the Griess reagent (1% sulfanilamide in 5% phosphoric acid and 0.1% naphthyl ethylenediamine dihydrochloride (NED) in water) and measured by a microplate reader at 570 nm. Indomethacin (a nonsteroidal anti-inflammatory drug) was used as a positive control. Results were shown as the percentage of inhibition calculated, following the equation: [(Acontrol − Asample)/Acontrol] × 100.
On the technique in general: Griess reagent forms a coloured azo dye with nitrite.

Experiment [2] addresses T1, α-glucosidase from Saccharomyces cerevisiae (Saccharomyces cerevisiae, UniProt P53341).
T1 construct: purchased Sigma Aldrich Inc. (St. Louis, MO. USA)
The experiment in a line: α-Glucosidase inhibitory assay (pNPG substrate). The class given is biochemical. The note with it: for IC50: IC50 α-Glucosidase. From the text: (§1) Folin–Ciocalteu reagent was bought from Merck (Darmstadt, Germany). Fetal bovine serum (FBS), penicillin-streptomycin, Dulbecco’s Modified Eagle Medium, high glucose (DMEM, high glucose), Roswell Park Memorial Institute (RPMI) 1640 medium, trypsin-EDTA, trypan blue dyes, and 3-(4,5-dimethylthiazol-2-yl)-2,5 diphenyltetrazolium bromide (MTT) were obtained from Thermo Fisher Scientific (Waltham, CA, USA). Ethanol, methanol, hexane, dichloromethane, ethyl acetate, and acetone (as analytical grades) were purchased from Labscan Asia Co., Bangkok, Thailand.
The inhibitory effects against α-glucosidase enzyme of crude extract, partitioned fractions, and all isolated pure compounds were examined according to previous assay. In brief, 50 µL of each sample in 50 mM phosphate buffer, pH 6.9 (at various concentrations), was pre-mixed with 50 µL of 0.57 U/mL α-glucosidase enzyme for 10 min at 37 °C. Then, 50 µL of 5 mM pNPG substrate was added into the mixture and further incubated for 30 min, after that stopping the reaction by 50 µL of 1 M sodium carbonate solution (Na2CO3). A microplate reader (DTX880 Multimode Detector, Beckman Coulter®, Wien, Austria) immediately measured the absorbance at 405 nm. The following equation calculated the percentage of inhibition: [(Acontrol − Asample)/Acontrol] × 100, where Acontrol and Asample were the absorbance of reaction without and with the sample, respectively.

The target of experiment [3] is T2, dipeptidyl peptidase-IV (DPP-IV) from porcine kidney (Sus scrofa, UniProt P22411).
T2 construct: purchased Sigma Aldrich Inc. (St. Louis, MO. USA); host or cells: porcine kidney (tissue-derived enzyme)
The experiment is described as follows: Dipeptidyl peptidase-IV (DPP-IV) inhibitory assay (GP-p-NA substrate). The class given is biochemical.
From the text: as §1
The DPP-IV inhibition activities of crude extract, partitioned fractions, and isolated pure compounds were investigated, following the procedure of Van et al. (2009) and Al-Masri et al. (2009), with some modifications. Concisely, 40 µL of each sample diluted in 50 mM Tris-HCl buffer, pH 8.0 (at final concentration 50 ug/mL), was pre-incubated with 30 µL of 0.05 U/mL of DPP-IV enzyme at 37 °C. After 10 min, 100 µL of 0.2 mM GP-p-NA substrate was added to the solution and further incubated for 30 min. Then, the reaction was terminated with 30 µL of 25% acetic acid, and the absorbance at 405 nm was suddenly measured by a microplate reader (DTX880 Multimode Detector, Beckman Coulter®, Wein, Austria). The percentage of inhibition was calculated, following the formula: [(Acontrol − Asample)/Acontrol] × 100, where Acontrol and Asample were the absorbances of reaction with and without sample, respectively. Diprotin A was employed as a positive control, and the results were presented as the IC50 value.

In the next experiment the test system is 3T3-L1 adipocytes. The experiment in a line: Glucose uptake assay in differentiated 3T3-L1 adipocytes (GO kit). The class given is cell-based, mouse. The note with it: for glucose uptake stimulation: positive control.
The mark [4] stands for this setting: molar value, in parentheses in Table 3.

T2 sequence (P22411 whole entry): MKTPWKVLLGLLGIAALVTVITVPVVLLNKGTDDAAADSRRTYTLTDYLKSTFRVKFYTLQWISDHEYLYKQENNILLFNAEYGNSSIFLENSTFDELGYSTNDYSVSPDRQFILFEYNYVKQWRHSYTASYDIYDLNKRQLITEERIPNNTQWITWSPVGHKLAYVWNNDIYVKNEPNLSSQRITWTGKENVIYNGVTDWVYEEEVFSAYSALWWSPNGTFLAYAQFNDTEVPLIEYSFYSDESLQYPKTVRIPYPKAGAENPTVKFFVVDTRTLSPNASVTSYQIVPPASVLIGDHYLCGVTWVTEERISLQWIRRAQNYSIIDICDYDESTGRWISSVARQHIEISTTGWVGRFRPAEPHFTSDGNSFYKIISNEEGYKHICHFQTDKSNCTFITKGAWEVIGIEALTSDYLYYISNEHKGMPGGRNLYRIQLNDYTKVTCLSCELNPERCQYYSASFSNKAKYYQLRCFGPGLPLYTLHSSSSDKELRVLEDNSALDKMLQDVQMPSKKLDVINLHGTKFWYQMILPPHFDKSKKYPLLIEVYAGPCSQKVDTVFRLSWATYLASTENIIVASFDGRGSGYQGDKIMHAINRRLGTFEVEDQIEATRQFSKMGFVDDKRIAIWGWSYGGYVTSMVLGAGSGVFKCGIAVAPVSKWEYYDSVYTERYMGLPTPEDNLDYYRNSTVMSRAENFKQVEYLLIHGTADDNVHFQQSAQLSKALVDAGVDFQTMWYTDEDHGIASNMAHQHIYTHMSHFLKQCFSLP
T1 sequence (P53341 whole entry): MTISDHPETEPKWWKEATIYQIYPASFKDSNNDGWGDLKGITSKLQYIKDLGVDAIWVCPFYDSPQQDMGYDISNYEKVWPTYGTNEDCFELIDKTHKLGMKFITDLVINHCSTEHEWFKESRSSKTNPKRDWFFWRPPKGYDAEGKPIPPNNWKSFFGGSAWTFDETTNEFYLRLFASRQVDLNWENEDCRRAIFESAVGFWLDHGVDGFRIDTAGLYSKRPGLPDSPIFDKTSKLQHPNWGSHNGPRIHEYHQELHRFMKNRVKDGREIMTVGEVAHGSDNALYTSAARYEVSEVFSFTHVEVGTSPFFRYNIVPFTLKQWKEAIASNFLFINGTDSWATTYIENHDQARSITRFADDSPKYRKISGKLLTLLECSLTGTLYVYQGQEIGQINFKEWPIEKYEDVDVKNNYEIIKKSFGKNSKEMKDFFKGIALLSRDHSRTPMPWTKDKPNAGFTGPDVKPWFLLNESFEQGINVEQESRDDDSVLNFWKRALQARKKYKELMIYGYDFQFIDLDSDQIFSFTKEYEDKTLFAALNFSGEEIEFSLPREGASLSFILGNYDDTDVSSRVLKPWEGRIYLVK
Description for 3T3-L1 adipocytes: The 3T3-L1 pre-adipocytes were induced to differentiate into adult adipocytes after 48 h of confluence in 48 wells plate. The cells were incubated with cultured media, comprising of 1 µg/mL insulin, 10 µM dexamethasone, and 0.5 mM IBMX. After 48 h of incubation, differentiate media were removed and replaced with cultured media containing 1 µg/mL insulin. Then, the maintained media were changed every two days for eight days.
The glucose uptake stimulatory effect of crude extract, partitioned fractions, and isolated compounds was determined by the previously described method [60]. Briefly, differentiated adipocytes were grown in 48-well plates, with cultured media containing 2% FBS, for 18 h. Then, the cells were washed and treated with various concentrations of samples in a complete low glucose medium. After 24 h of incubation, the treated medium of samples was individually transferred into 96-well plates and mixed with the reagent of the GO kit at 37 °C for 30 min. The reaction was terminated by 6M H2SO4, and the absorbance of remaining glucose at 540 nm was recorded by a microplate reader. The ability to enhance glucose uptake was measured by the amount of glucose in the media. The percentage of glucose uptake stimulation was calculated by following equation: %stimulation = [(Acontrol − Asample)/Acontrol] × 100, where Acontrol and Asample were the absorbances of reaction with and without sample, respectively.

Take `C[C@@H]1O[C@@H](Oc2coc3cc(O)cc(O)c3c2=O)[C@H](O)[C@H](O)[C@H]1O` [3,5,7-Trihydroxychromone-3-O-α-L-rhamnopyranoside]: the “IC50 α-glucosidase inhibitory effect” value at α-glucosidase is 540 µg/mL (≈ 1590 µM).

As usually defined, the IC50 is the midpoint of a concentration-inhibition curve. On to `Oc1cc(O)c2c(c1)O[C@H](c1ccc(O)c(O)c1)[C@H](O)C2` [Epicatechin], for which, in experiment [1], the “effect on NO production (in words)” value is “inhibitory effect on NO production at only high concentrations”. Moreover, the “α-glucosidase inhibitory ability (in words)” value in experiment [2] is “no effect”. In addition, the IC50 in experiment [3] and in experiment [3] (setting [4]) was above 50 µM in each case.

On to `O=C(O)c1cc(O)c(O)c(O)c1` [Gallic acid], for which, in experiment [1], the “effect on NO production (in words)” value is “inhibitory effect on NO production at only high concentrations”. The “α-glucosidase inhibitory ability (in words)” value in experiment [2] is listed as “no effect”. Besides, the 50% inhibitory concentration (IC50) in experiment [2] is above 25 µM; in experiment [2] (setting [4]) it was above 25 µM; in experiment [3] it was above 50 µM; in experiment [3] (setting [4]) it was above 50 µM.

Regarding `COc1ccc2c(c1)c(CC(=O)O)c(C)n2C(=O)c1ccc(Cl)cc1` [Indomethacin, indomethacin, reference compound], in experiment [1], the “effect on NO production (in words)” value is on record as “potent anti-inflammatory”.

Regarding `O=c1c(O)c(-c2ccc(O)c(O)c2)oc2cc(O)cc(O)c12` [Quercetin], the “effect on NO production (in words)” value in experiment [1] was “no effect”. In addition, the IC50 is 8.24 µM in experiment [3] and 8.25 µM in experiment [3] (setting [4]). In addition, the “glucose uptake stimulation effect (in words)” value in the experiment on 3T3-L1 adipocytes (Figure 4) is “higher glucose uptake stimulation effect than resveratrol, gallic acid, and epicatechin”.

For `Oc1ccc(/C=C/c2cc(O)cc(O)c2)cc1` [Resveratrol], the “effect on NO production (in words)” value in experiment [1] is on record as “inhibitory effect on NO production at only high concentrations”. Besides, the concentration for half-maximal inhibition (IC50) in experiment [3] and in experiment [3] (setting [4]) was 14.1 µM each time.

Consider `CN(C)C(=N)N=C(N)N` [metformin, reference compound], for which the glucose uptake stimulation with 3T3-L1 adipocytes (2 mM) amounted to 85.34%.

In the experiment with 3T3-L1 adipocytes (100 nM), insulin had a glucose uptake stimulation of 92.81%.

Values taken from paper PMC9032570, “Flavonoids and Phenols, the Potential Anti-Diabetic Compounds from Bauhinia strychnifolia Craib. Stem” (Molecules, 2022).
